Patent publication US20120184536A1, “COMPOSITIONS COMPRISING SPECIFIC UGT INHIBITORS AND METHODS OF USE THEREOF” (The Board of Trustees of the University of Arkansas, priority 2009, published 2012)
Like-named read-outs stand apart in the source and are kept apart here.

Columns and labels:
[1] = molecular target: T1, UGT1A10 (Homo sapiens, UniProt Q9HAW8); assay: Ki assays / kinetics and inhibition type, UGT1A10 (Example 1); conditions: read-out: Km (Substrate), Km of the aglycone substrate
T1 sequence (Q9HAW8 26-530): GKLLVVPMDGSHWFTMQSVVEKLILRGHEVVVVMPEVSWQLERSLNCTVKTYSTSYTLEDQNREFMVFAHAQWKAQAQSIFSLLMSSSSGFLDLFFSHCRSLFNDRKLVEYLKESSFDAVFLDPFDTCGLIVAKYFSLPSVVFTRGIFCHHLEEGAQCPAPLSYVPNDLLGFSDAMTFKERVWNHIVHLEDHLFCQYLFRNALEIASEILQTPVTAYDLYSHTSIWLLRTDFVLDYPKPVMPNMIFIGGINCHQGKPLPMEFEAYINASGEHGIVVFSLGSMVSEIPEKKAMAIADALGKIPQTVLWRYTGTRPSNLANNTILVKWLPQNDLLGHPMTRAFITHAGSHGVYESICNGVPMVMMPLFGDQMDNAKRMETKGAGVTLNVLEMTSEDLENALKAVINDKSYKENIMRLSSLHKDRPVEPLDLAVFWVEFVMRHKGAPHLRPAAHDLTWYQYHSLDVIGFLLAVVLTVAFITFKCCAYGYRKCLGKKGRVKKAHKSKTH
Description: (§5) Recombinant UGT Isoform Incubations—Recombinant human UGT2B7 was produced in HEK239 cells as previously described (6). UGT1A10 was produced as a His-tagged protein in baculovirus-infected Sf9 insect cells as previously described (7, 8). […] For inhibition assays, recombinant UGT membrane protein was incubated in reaction buffer with substrate, inhibitor, and co-substrate as previously described (6, 9).
(§6) Ki assays—UGT2B7 or 1A10 were incubated with a range of at least four different concentrations of inhibitor using varying concentrations of substrate (Ki(substrate)) with a fixed saturating concentration of cosubstrate or with varying concentrations of co-substrate (Ki(UDP-GlcUA)) and a fixed saturating concentration of substrate (FIG. 4).
(§7) The results of these experiments were analyzed and apparent kinetic and inhibition parameters were determined using Prism 4 software (GraphPad, San Diego, Calif.) and DynaFit (BioKin, Watertown, Mass.). TLC and HPLC Analysis—For inhibition assays using all substrates other than 7-OH-warfarin, aliquots (60 μl) of each incubation were analyzed using thin layer chromatography (TLC) as previously described (3). For inhibition assays using 7-OH-warfarin as a substrate, samples were analyzed using HPLC as described previously (10). Primary standards for the 7-OH-warfarin glucuronide were not available; therefore, product concentrations were estimated using the external standard response for the 7-OH-warfarin substrate.

[2] = molecular target: T1, UGT1A10; assay: Ki assays / kinetics and inhibition type, UGT1A10 (Example 2)
Description: Recombinant UGT Isoform Incubations—Recombinant human UGT1A10 and it mutants were produced in baculovirus-infected insect cells as previously described (6, 7). Synthesis of inhibitors was described previously (2). For inhibition assays, UGT recombinant membrane protein (5 μg) was incubated in reaction buffer ([…] Tris-HCl (pH 7.4)/5 mM MgCl2/5 mM saccharolactone) and 2% DMSO with substrate, inhibitor and co-substrate, UDP-GlcUA, in a total volume of 30 μl. Substrates were added in DMSO, and controls were run with each assay. No additional detergents or other activators were used in the incubations. Reactions were started by the addition of co-substrate and incubated at 37° C. (90 min for 8-hydroxywarfarin; 30 min for 4-MU; 30 min for E2). […] Reactions were stopped by addition of 40 μl of ethanol, and all incubations were performed in duplicate.
TLC Analysis—For inhibition assays using 4-MU, E2, and 8-OH warfarin as substrates, aliquots (60 μl) of each sample were analyzed using thin layer chromatography (TLC) as described previously (3).
Each sample was centrifuged at 14,000 rpm for 8 min to spin down the protein, and 60 μl of the supernatant was analyzed by HPLC as described previously (8).

[3] = molecular target: T2, UGT2B7 (Homo sapiens, UniProt P16662); assay: Ki assays / kinetics and inhibition type, UGT2B7 (Example 1); conditions: human
T2 sequence (P16662 24-529): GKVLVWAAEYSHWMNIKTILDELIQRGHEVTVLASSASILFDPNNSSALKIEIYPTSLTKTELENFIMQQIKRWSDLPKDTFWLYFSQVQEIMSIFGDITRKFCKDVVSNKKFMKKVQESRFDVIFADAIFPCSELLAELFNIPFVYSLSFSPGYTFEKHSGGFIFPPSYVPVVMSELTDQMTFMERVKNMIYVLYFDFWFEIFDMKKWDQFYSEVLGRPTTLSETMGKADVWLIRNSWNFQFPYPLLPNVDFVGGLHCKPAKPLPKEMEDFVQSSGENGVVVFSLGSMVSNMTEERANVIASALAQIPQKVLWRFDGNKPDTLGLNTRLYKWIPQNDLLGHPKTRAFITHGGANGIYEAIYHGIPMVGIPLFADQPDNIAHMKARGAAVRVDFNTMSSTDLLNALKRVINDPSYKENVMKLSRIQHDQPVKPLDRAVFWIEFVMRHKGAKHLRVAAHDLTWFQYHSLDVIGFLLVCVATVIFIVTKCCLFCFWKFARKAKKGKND
Description: as §5, §6, §7

[4] = molecular target: T2, UGT2B7
Description: (§8) Recombinant UGT Isoform Incubations—Recombinant human UGT2B7 was produced in HEK239 cells as previously described (6). […] For inhibition assays, recombinant UGT membrane protein was incubated in reaction buffer with substrate, inhibitor, and co-substrate as previously described (6, 9).
(§9) IC50 assays—UGT2B7 or 1A10 were incubated with fixed concentrations of each substrate and co-substrate and increasing concentrations of inhibitor.
as §7

[5] = molecular target: T3, UGT1A6 (Homo sapiens, UniProt P19224); assay: Screening assay, 4-MU glucuronidation by UGT1A6; format: biochemical; conditions: 250 μM 4-MU; 0, 50 or 200 μM inhibitor; FIG. 2 / FIG. 10
T3 sequence (P19224 27-532): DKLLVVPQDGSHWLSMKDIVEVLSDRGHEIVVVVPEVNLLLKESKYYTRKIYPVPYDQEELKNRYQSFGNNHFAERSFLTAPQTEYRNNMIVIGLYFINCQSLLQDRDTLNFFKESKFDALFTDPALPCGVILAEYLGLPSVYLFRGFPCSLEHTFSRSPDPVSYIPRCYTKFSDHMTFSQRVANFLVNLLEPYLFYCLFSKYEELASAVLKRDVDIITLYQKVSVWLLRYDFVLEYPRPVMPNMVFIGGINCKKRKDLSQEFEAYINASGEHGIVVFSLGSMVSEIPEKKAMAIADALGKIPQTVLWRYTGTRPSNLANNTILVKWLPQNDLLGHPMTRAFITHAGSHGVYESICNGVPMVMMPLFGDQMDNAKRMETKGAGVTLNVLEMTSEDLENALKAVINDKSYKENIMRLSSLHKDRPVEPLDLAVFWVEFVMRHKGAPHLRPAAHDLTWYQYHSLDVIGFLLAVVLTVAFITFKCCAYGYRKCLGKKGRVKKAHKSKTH
Description: (§1) FIG. 2 depicts the effect of PP inhibitors on the glucuronidation by UGT1A6, 1A8, 1A10, and 2B7. Each enzyme was incubated with 250 μM of 4-MU or linoleic acid and 0 μM (black), 50 μM (grey), or 200 μM (white) of each inhibitor. Activities are normalized to percent maximal activity.
(§2) FIG. 10 depicts the effect of PP inhibitors on the glucuronidation of 4-MU by UGT1A6, 1A8, and 1A10. Each enzyme was incubated with 250 μM 4-MU and 0, 50, or 200 μM concentrations of each inhibitor. Activities are normalized to percent maximal activity.
(§3) Synthesis of inhibitors was described previously (2).
(§4) Recombinant UGT Isoform Incubations—Recombinant human UGT1A10 and it mutants were produced in baculovirus-infected insect cells as previously described (6, 7). Synthesis of inhibitors was described previously (2). For inhibition assays, UGT recombinant membrane protein (5 μg) was incubated in reaction buffer ([…] Tris-HCl (pH 7.4)/5 mM MgCl2/5 mM saccharolactone) and 2% DMSO with substrate, inhibitor and co-substrate, UDP-GlcUA, in a total volume of 30 μl. Substrates were added in DMSO, and controls were run with each assay. No additional detergents or other activators were used in the incubations. Reactions were started by the addition of co-substrate and incubated at 37° C. (90 min for 8-hydroxywarfarin; 30 min for 4-MU; 30 min for E2). […]

[6] = molecular target: T4, UGT1A8 (Homo sapiens, UniProt Q9HAW9); assay: Screening assay, 4-MU glucuronidation by UGT1A8; format: biochemical; conditions: 250 μM 4-MU; 0, 50 or 200 μM inhibitor; FIG. 2 / FIG. 10
T4 sequence (Q9HAW9 26-530): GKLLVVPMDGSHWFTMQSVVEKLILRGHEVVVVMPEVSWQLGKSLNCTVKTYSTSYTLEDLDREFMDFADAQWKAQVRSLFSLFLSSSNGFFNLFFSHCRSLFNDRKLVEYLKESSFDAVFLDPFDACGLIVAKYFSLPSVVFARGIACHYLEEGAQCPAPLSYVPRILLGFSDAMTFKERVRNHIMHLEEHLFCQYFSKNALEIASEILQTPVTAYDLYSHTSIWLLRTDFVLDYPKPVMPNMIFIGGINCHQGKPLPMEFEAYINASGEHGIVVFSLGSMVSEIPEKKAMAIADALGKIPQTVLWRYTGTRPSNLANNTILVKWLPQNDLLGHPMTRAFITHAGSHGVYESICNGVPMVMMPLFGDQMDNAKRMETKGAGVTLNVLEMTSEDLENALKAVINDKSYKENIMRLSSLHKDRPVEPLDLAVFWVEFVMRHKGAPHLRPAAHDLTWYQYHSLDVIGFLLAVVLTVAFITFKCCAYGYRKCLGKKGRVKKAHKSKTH
Description: as §1, §2, §3, §4

[7] = molecular target: T2, UGT2B7; assay: IC50 assays, inhibition of UGT2B7 glucuronidation (Example 1); conditions: read-out: IC50 (Substrate), linoleic acid ~2 x Km, co-substrate in >5 fold excess
Description: as §8, §9, §7

[8] = molecular target: T2, UGT2B7; assay: Screening assay, linoleic acid glucuronidation by UGT2B7; format: biochemical; design: made in house; host or cells: HEK239 cells (so in the source); conditions: 250 μM linoleic acid; 0, 50 or 200 μM inhibitor; FIG. 2
Description: as §1, §3

[9] = molecular target: T1, UGT1A10; assay: Screening assay, 4-MU glucuronidation by UGT1A10; format: biochemical; design: His; made in house; host or cells: baculovirus-infected Sf9 insect cells; conditions: 250 μM 4-MU; 0, 50 or 200 μM inhibitor; FIG. 2 / FIG. 10
Description: as §1, §2, §3, §4

[10] = molecular target: T3, UGT1A6; conditions: cited from earlier work; for inhibition type toward UDP-GlcUA / inhibition type with 4-MU: 4-MU glucuronidation
[11] = substrate: O=[N+]([O-])c1ccc(O)cc1; assay: purified protein, by the assay type; conditions: other: UGT2B7; Km of the aglycone substrate
Description: as §5, §6, §7

[12] = substrate: C[C@]12CC[C@@H](O)C[C@@H]1CC[C@@H]1[C@@H]2CC[C@]2(C)C(=O)CC[C@@H]12; assay: purified protein, by the assay type; conditions: other: UGT2B7; Km of the aglycone substrate
[13] = read-out: Km (Substrate), UGT1A10, Km of the aglycone substrate, Example 2

Cc1cc(=O)oc2cc(O)ccc12 [4-MU, 4-methylumbelliferone, reference compound]
Km [1]: 200 ± 20 µM
Km [2, 13]: 91.1 ± 19 µM

CC(=O)CC(c1ccccc1)c1c(O)c2ccc(O)cc2oc1=O (stereo not drawn) [7-OH Warfarin, 7-hydroxywarfarin, reference compound]
Km [1]: 450 ± 40 µM
Km [2, 13]: 497 ± 61 µM

CC(=O)CC(c1ccccc1)c1c(O)c2cccc(O)c2oc1=O (stereo not drawn) [8-OH Warfarin, 8-hydroxywarfarin, reference compound]
Km [1]: 510 ± 70 µM
Km [2, 13]: 515 ± 17 µM

C[C@]12CC[C@@H]3c4ccc(O)cc4CC[C@H]3[C@@H]1CC[C@@H]2O [E2, reference compound]
Km [1]: 46 ± 5 µM
Km [2]: 48.3 ± 9 µM

CCCCC/C=C\C/C=C\CCCCCCCC(=O)O [Linoleic Acid, reference compound]
Km [3]: 160 ± 20 µM

CCCCCCCCCC(=O)NC(COC(=O)NCC(=O)NCC1OC(n2ccc(=O)[nH]c2=O)C(O)C1O)C(O)c1ccccc1 (stereo not drawn) [PP36]
IC50 [4]: 210 µM
effect on glucuronidation of 4-MU by UGT1A6 [5]: least effect
effect on glucuronidation of 4-MU by UGT1A8 [6]: least effect
IC50 [7]: 740 µM
effect on glucuronidation of linoleic acid by UGT2B7 [8]: least effect
effect on glucuronidation of 4-MU by UGT1A10 [9]: least effect

CCCCCCCCCC(=O)NC(COC(=O)NS(=O)(=O)OCC1OC(n2ccc(=O)[nH]c2=O)C2OC(C)(C)OC12)C(O)c1ccccc1 (stereo not drawn) [PP37P]
effect on glucuronidation of 4-MU by UGT1A6 [5]: least effect
effect on glucuronidation of 4-MU by UGT1A8 [6]: least effect
inhibition type toward UDP-GlcUA [10]: competitive
inhibition type with 4-MU [10]: competitive
inhibition of 4-methylumbelliferone (4-MU) glucuronidation [10]: identified as inhibitors
effect on glucuronidation of linoleic acid by UGT2B7 [8]: least effect
effect on glucuronidation of 4-MU by UGT1A10 [9]: least effect

CCCCCCCCCC(=O)NC(COC(=O)NS(=O)(=O)OCC1OC(n2ccc(=O)[nH]c2=O)C(O)C1O)C(O)c1ccccc1 (stereo not drawn) [PP37]
inhibition type toward UDP-GlcUA [10]: competitive
inhibition type with 4-MU [10]: competitive
inhibition of 4-methylumbelliferone (4-MU) glucuronidation [10]: identified as inhibitors

CCCCCCCCCC(=O)NC(COC(=O)NS(=O)(=O)OCC1OC(n2ccc(=O)[nH]c2=O)C2OC(C)(C)OC12)Cc1ccccc1 (stereo not drawn) [PP50B]
inhibition type toward UDP-GlcUA [10]: competitive
inhibition type with 4-MU [10]: non-competitive
inhibition of 4-methylumbelliferone (4-MU) glucuronidation [10]: identified as inhibitors

CCCCCCCCCC(=O)NC(COC(=O)CS(=O)(=O)OCC1OC(n2ccc(=O)[nH]c2=O)C(O)C1O)Cc1ccccc1 (stereo not drawn) [PP56B]
inhibition type toward UDP-GlcUA [10]: competitive
inhibition type with 4-MU [10]: competitive
inhibition of 4-methylumbelliferone (4-MU) glucuronidation [10]: identified as inhibitors

B1: UGT2B7 (Homo sapiens) (protein)
chain: T2 sequence (P16662 24-529)
Km [11]: 760 ± 130 µM
Km [12]: 22 ± 2 µM
